Data reported in ChEMBL document CHEMBL3856245, “New labdane diterpenoids from Croton laui and their anti-inflammatory activities” (Bioorg Med Chem Lett, 2016).

Assays:
RAW264.7 = test: Selectivity index, ratio of CC50 for mouse RAW264.7 cells to antiinflammatory IC50 for mouse RAW264.7 cells; type: functional
[1] = Antiinflammatory activity in mouse RAW264.7 cells assessed as inhibition of LPS-induced NO production after 24 hrs in presence of LPS by Griess reagent based assay; type: functional, cell-based; details: RAW264.7, 24 h
[2] = Cytotoxicity against mouse RAW264.7 cells assessed as reduction in cell viability after 48 hrs by MTT assay; type: toxicity

| Structure (SMILES) | Ratio CC50/IC50 (RAW264.7) | IC50 [1] | CC50 at 48 h [2] |
| --- | --- | --- | --- |
| CC1=CC(=O)O[C@@]12C[C@@H]1[C@@]3(C)CCCC(C)(C)[C@@H]3C[C@H](O)[C@@]1(C)O2 | >2.2 | 44.6 µM | > 100 µM |
| C/C(C=O)=C\C[C@H]1[C@](C)(O)[C@@H](O)C[C@H]2C(C)(C)CCC[C@@]21C | >1.1 | 93 µM | > 100 µM |
| C/C(=C\CO)[C@H]1C[C@@H]2[C@@]3(C)CCCC(C)(C)[C@@H]3C[C@H](O)[C@@]2(C)O1 | >2.3 | 42.7 µM | > 100 µM |
| C=C/C(C)=C/C[C@H]1[C@](C)(O)[C@@H](O)C[C@H]2C(C)(C)CCC[C@@]21C | 1.9 | 49.3 µM | 94.5 µM |
| CC1=CC(=O)O[C@]12C[C@@H]1[C@@]3(C)CCCC(C)(C)[C@@H]3C[C@H](O)[C@@]1(C)O2 | >2 | 49.6 µM | > 100 µM |
| COc1ccc2c(c1)c(CC(=O)O)c(C)n2C(=O)c1ccc(Cl)cc1 [INDOMETHACIN] | >12.1 | 16.5 µM | > 200 µM |
